Consider one molecule from patent US11253514B2, “Triple combination of pure 5-HT6 receptor antagonists, acetylcholinesterase inhibitors and NMDA receptor antagonist” (priority 2016, dated 2022).

pKi: −log10 of the molar value. Structures can show the parent of a compound that is named as a salt. Bounds are passed on as bounds.

The test deals with human recombinant 5-HT2A receptor (Homo sapiens (Human), UniProt P28223). Nature of the test: Determination of Ki value at 5-HT2A receptor ([3H]-Ketanserine radioligand binding). As for the experimental part:
Determination of Ki Value at 5-HT2A Receptor
Compound was tested according to the following procedures.
Receptor source: Recombinant mammalian cells
Radioligand: [^3H]-Ketanserine (47.3 Ci/mmol)
Final ligand concentration—[1.75 nM]
Non-Specific Ligand: 0.1 mM 1-Naphthylpiperazine (1-NP)
Reference compound: 1-Naphthylpiperazine (1-NP)
Positive control: 1-Naphthylpiperazine (1-NP)
Incubation conditions: Reactions were carried out in 67 mM Tris-HCl (pH 7.4) for 1 hour at 37° C. The reaction was terminated by rapid vacuum filtration onto the glass fiber filters. Radioactivity trapped onto the filters was determined and compared to the control values in order to ascertain any interactions of the test compound(s) with the cloned serotonin 5-HT2A binding site. Reference: Methods in Molecular Biology, 2002, 190, 31-49 Results:
. The Ki values tabulated below are average of three independent experiments.

The term pKi denotes the negative decadic logarithm of the Ki, by convention in mol/L. In the case of `COc1ccc2c(c1)c(CN1CCN(C)CC1)cn2S(=O)(=O)c1ccc(F)cc1` [Compound 2, 1-[(4-Fluorophenyl)sulfonyl]-5-methoxy-3-[(4-methyl-1-piperazinyl)methyl]-1H-indole dihydrochloride], the pKi was < 5.00.
